Experimental data from patent publication US11964943B2, “3,5-diarylidenyl-n-substituted-piperid-4-one-derived inhibitors of Stat3 pathway activity and uses thereof” (priority 2017, dated 2024).
Converted amounts (≈) assume the structure as drawn. “And” between values parts separate entries of the source, which are not always exact repeats. Equal entries are not always repeated. Where two headings read alike, the source gives them in different places.

Columns and labels:
[1] = test system: B16 (melanoma) cells; test: MTT cytotoxicity assay, B16 cells
[2] = test system: L1210 (lymphoma) cells; test: MTT cytotoxicity assay, L1210 cells
[3] = Aqueous solubility (MultiScreen Solubility Filter Plate, shake-flask based); details: aqueous buffer with 5% DMSO, pH 7.4, aqueous with cosolvent or surfactant or cyclodextrin, kinetic from dmso stock
Method: Aqueous solubility of Compounds of the Invention was measured with a modified version of the MultiScreen Solubility Filter Plate protocol (Millipore). This assay was based on the shake-flask equilibrium method and utilizes UV-Vis spectroscopy to quantify the unknown samples. The assay was conducted at room temperature at pH 7.4. […] Compound of the Invention was dissolved in DMSO, and the final DMSO concentration was 5% (v/v). Each sample was analyzed by UV-Vis spectroscopy at 10 nm increments from 260-600 nm to determine the optimal wavelength for detection and construct standard curves. […] A 4:1 mixture of supernatant to acetonitrile was added to a 96-well acrylic plate and analyzed by UV-Vis spectroscopy.
Aqueous solubility was measured with a modified version of the MultiScreen Solubility Filter Plate protocol (Millipore). This assay is based on the shake-flask equilibrium method and utilizes UV-Vis spectroscopy to quantify the unknown samples. The assay is conducted at room temperature at pH 7.4. […] Each compound was dissolved in DMSO, and the final DMSO concentration was 5% (v/v). Each sample was analyzed by UV-Vis spectroscopy at 10 nm increments from 260-600 nm to determine the optimal wavelength for detection and construct standard curves. […] A 4:1 mixture of supernatant to acetonitrile was added to a 96-well acrylic plate and analyzed by UV-Vis spectroscopy.

[4] = test system: MDA-MB-435 cancer cell line; test: SRB antiproliferative assay, MDA-MB-435; type: cell-based, human; details: Homo sapiens, MDA-MB-435, 48 h exposure
[5] = Mus musculus, B16, 72 h, read-out: IC50 (μM) B16, 72 h exposure, MTT, mean of three independent experiments
[6] = Mus musculus, L1210, 72 h, read-out: IC50 (μM) L1210, 72 h exposure, MTT, mean of three independent experiments
[7] = read-out: IC50 (μM) B16, 72 h exposure, MTT, mean of three independent experiments
[8] = read-out: IC50 (μM) L1210, 72 h exposure, MTT, mean of three independent experiments

With COc1ccc(/C=C2\CN(Cc3ccccc3)C/C(=C\c3ccc(OC)c(O)c3)C2=O)cc1O [ID-5] the IC50 [1, 5] was 2.4 ± 0.5 µM and the IC50 [2, 6] was 3.1 ± 0.1 µM.
Molecule CN1C/C(=C\c2ccccc2)C(=O)/C(=C/c2ccccc2)C1 [IB-1] has an IC50 [1, 5] of 5 ± 2 µM and an IC50 [2, 6] of 2.4 ± 0.3 µM.
COc1cc(/C=C2\CN(C(C)C)C/C(=C\c3ccc(O)c(OC)c3)C2=O)ccc1O [IC-6] gave an IC50 [1, 5] of 2.2 ± 0.2 µM and an IC50 [2, 6] of 2.2 ± 0.2 µM.
Work on COc1ccc(/C=C2\CN(c3ccccc3)C/C(=C\c3ccc(OC)c(OC)c3)C2=O)cc1OC [IE-7, 3,5-Di(3,4-dimethoxybenzylidene)-1-phenylpiperidin-4-one] yielded an IC50 [1, 5] of 1.3 ± 0.1 µM, a melting point of 144 to 148 °C and an IC50 [2, 6] of 2.9 ± 0.9 µM.
In the case of COc1cc(/C=C2\CNC/C(=C\c3cc(OC)c(OC)c(OC)c3)C2=O)cc(OC)c1OC [IA-8], the solubility at 6 h [3] is reported as 70 ± 10 µM (≈ 31.9 µg/mL), the IC50 [1, 5] is reported as 0.3 µM and the IC50 [2, 6] is reported as 0.32 µM. It also gave an IC50 ([2]; read-out: IC50 (μM) L1210, 72 h exposure, MTT, mean of three independent experiments, listed as 4h) of about 0.3 µM and an IC50 [4] of 0.088 µM.
Molecule O=C1/C(=C/c2ccc([N+](=O)[O-])cc2)CN(Cc2ccccc2)C/C1=C\c1ccc([N+](=O)[O-])cc1 [ID-3] has an IC50 [1, 5] of 2.5 ± 0.7 µM and an IC50 [2, 6] of 2 ± 1 µM.
COc1cc(/C=C2\CN(Cc3ccccc3)C/C(=C\c3cc(OC)c(OC)c(OC)c3)C2=O)cc(OC)c1OC [ID-8] showed a solubility at 6 h [3] of 210 ± 20 µM (≈ 115 µg/mL), an IC50 [1, 5] of 2.4 µM and an IC50 [2, 6] of 3.6 µM. For the same molecule, the IC50 [4] was 0.76 µM.
For Cc1ccc(/C=C2\CNC/C(=C\c3ccc(C)cc3)C2=O)cc1 [IA-2], the IC50 [1, 7] was 8 ± 4 µM and the IC50 [2, 8] was 3.1 ± 0.1 µM.
Molecule O=C1/C(=C/c2ccccc2)CN(Cc2ccccc2)C/C1=C\c1ccccc1 [ID-1] has an IC50 [1, 5] of 3.1 ± 0.1 µM and an IC50 [2, 6] of 3.4 ± 0.5 µM.
Work on Cc1ccc(/C=C2\CN(Cc3ccccc3)C/C(=C\c3ccc(C)cc3)C2=O)cc1 [ID-2] yielded an IC50 [1, 5] of 14 µM and an IC50 [2, 6] of 9 µM.
For O=C1/C(=C/c2ccccc2)CN(c2ccccc2)C/C1=C\c1ccccc1 [IE-1], the IC50 [1, 5] was 7 µM and the IC50 [2, 6] was 4 ± 2 µM.
CC(C)N1C/C(=C\c2ccc([N+](=O)[O-])cc2)C(=O)/C(=C/c2ccc([N+](=O)[O-])cc2)C1 [IC-3] gave an IC50 [1, 5] of 3.7 ± 0.6 µM and an IC50 [2, 6] of 0.9 ± 0.6 µM.
In the case of COc1ccc(/C=C2\CN(c3ccccc3)C/C(=C\c3ccc(OC)cc3)C2=O)cc1 [IE-4, 3,5-Di(4-methoxybenzylidene)-1-phenylpiperidin-4-one], the IC50 [1, 5] is reported as 25 to 65 µM, the IC50 [1, 7] is reported as 37 ± 6 µM and the melting point is reported as 152 to 155 °C. The IC50 [2, 8] was 55 ± 7 µM.
With COc1cc(/C=C2\CN(C(C)C)C/C(=C\c3cc(OC)c(OC)c(OC)c3)C2=O)cc(OC)c1OC [IC-8] the IC50 [1, 5] was 25 to 65 µM, the IC50 ([1]; read-out: IC50 (μM) B16, 72 h exposure, MTT, mean of three independent experiments, listed as 6h) was 25.6 µM and the IC50 [2, 6] was 25 to 65 µM. For the same molecule, the IC50 ([2]; read-out: IC50 (μM) L1210, 72 h exposure, MTT, mean of three independent experiments, listed as 6h) was 47 µM and 47.1 µM.
In the case of COc1ccc(/C=C2\CNC/C(=C\c3ccc(OC)cc3)C2=O)cc1 [IA-4], the IC50 [1, 5] is reported as 25 to 65 µM, the IC50 ([1]; read-out: IC50 (μM) B16, 72 h exposure, MTT, mean of three independent experiments, listed as 4d) is reported as 43 µM and the IC50 [2, 8] is reported as 35 ± 8 µM.
With O=C1/C(=C/c2ccccc2)CNC/C1=C\c1ccccc1 [IA-1] the “IC50 (μM) B16” value ([1]; 72 h exposure, MTT, mean of three independent experiments) was “_Ta”, the IC50 [1, 5] was 5 ± 1 µM and the IC50 [2, 6] was 0.5 µM.
In the case of COc1ccc(/C=C2\CN(Cc3ccccc3)C/C(=C\c3ccc(OC)cc3)C2=O)cc1 [ID-4], the IC50 [1, 5] is reported as 27 µM and the IC50 [2, 6] is reported as 8 µM.
COc1ccc(/C=C2\CN(c3ccccc3)C/C(=C\c3ccc(OC)c(O)c3)C2=O)cc1O [IE-5, 3,5-Di(3-hydroxy-4-methoxybenzylidene)-1-phenylpiperidin-4-one] showed an IC50 [1, 5] of 19 µM, a melting point of 142 to 146 °C and an IC50 [2, 6] of 6 µM.
Work on Cc1ccc(/C=C2\CNC/C(=C\c3ccc(C)cc3)C2=O)cc1 [IB-2] yielded an IC50 [1, 7] of 41 ± 6 µM and an IC50 [2, 8] of 35 ± 5 µM.
